Patent EP0583821A1, “Atriopeptins, guanylate cyclase activators, and phosphodiesterase inhibitors as treatment for glaucoma, hydrocephalus and cerebral edema (cranial fluid volume dysfunction)” (THE GENERAL HOSPITAL CORPORATION, priority 1987, dated 1988)

Assays:
rabbits = assay: CSF production by ventricular-cisternal perfusion after intraventricular drug; assay type: in vivo, rabbit
Procedure: Drug was given intraventricularly, either by bolus injection or by continuous addition (during a 10-minute period) to the CSF perfusion system. Ventricular-cisternal perfusion of Blue dextran was carried out by a closed system with active pumping both into and out of the catheters at a rate of […]. Output dye concentration was monitored continuously with an in-line photocell; and a separate, contralateral venticular catheter independently measured intracranial pressure. […] Drug was administered in an artificial CSF containing 0.01% rabbit serum albumin (RSA) and 0.25 mM ascorbate. […] In one animal, there was no change in CSF secretion rate, and in no case was there an increase in CSF production. […] During a period of 100 minutes, secretion rate dropped by 70%.

guanylate cyclase [1] = biological target: T1, guanylate cyclase (Oryctolagus cuniculus, UniProt G1TXB5); assay: rANP activation of membrane-bound guanylate cyclase in purified cerebral microvessels; assay type: biochemical; design: tissues were homogenized (10 mg wet weight per milliliter); from tissue; host or cells: rabbit cerebral microvessels, choroid plexus, kidney, ciliary process, pia-arachnoid, cerebellum; 100,000 g P1 pellet; conditions: purified rabbit cerebral microvessels, Fig. 1a
T1 sequence (G1TXB5 28-1056): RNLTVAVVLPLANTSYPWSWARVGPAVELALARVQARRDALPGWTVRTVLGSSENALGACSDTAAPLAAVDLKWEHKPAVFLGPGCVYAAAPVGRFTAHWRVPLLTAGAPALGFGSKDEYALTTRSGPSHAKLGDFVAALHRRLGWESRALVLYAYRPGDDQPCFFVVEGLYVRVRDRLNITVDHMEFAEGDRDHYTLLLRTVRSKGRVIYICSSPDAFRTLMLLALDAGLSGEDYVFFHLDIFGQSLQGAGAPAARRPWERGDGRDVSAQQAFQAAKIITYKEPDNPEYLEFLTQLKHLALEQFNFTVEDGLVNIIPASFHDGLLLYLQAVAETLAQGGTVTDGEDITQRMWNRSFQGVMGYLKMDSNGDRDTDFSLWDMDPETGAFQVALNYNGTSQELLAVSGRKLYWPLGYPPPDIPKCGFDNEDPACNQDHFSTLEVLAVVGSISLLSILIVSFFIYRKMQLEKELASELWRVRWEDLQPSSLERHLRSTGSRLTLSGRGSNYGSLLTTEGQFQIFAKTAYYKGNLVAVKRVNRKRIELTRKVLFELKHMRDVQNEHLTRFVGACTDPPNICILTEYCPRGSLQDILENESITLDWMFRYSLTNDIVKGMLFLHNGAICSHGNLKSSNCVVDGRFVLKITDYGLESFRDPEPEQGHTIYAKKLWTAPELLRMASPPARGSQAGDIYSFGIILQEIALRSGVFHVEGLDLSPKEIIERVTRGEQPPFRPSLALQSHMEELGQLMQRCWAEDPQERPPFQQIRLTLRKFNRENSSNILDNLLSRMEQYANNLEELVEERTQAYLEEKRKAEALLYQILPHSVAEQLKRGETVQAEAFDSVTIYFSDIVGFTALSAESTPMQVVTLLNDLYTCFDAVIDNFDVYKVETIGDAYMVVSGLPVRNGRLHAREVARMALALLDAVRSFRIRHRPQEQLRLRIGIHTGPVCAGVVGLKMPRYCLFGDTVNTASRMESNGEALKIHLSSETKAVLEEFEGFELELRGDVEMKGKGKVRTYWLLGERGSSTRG
Procedure: (§1) The effect of rANP on membrane-bound guanylate cyclase and adenylate cyclase activity in various brain-barrier tissues and tissue fractions from rabbit was compared with its activity in cerebrum and cerebellum. Guanylate cyclase was measured as the rate of cyclic GMP formation by modifications of the technique of Waldman et al., supra, incorporated herein by reference. Briefly, tissues were homogenized (10 mg wet weight per milliliter) in 50 mM tris-HCl, pH 8.0, 1 mM EDTA, 1 mM dithiothreitol, and 250 mM sucrose and centrifuged at 100,000g to obtain a P1 pellet. Reaction tubes contained (in 0.3 ml), 50 mM tris, pH 7.6, 6 mM MnCl₂, 0.5 mM 3-isobutyl, 1-methylxanthine (IBMX), 10 mM theophylline, 3 mM GTP, hormone (in 0.03 ml containing 2.5 mM ascorbic acid and 0.1% bovine serum albumin), and 0.06 ml of P1 fraction (40 to 60 ug of protein). The reaction (4 minutes at 30°C) was started by addition of GTP and terminated by addition of 0.3 ml of 150 mM sodium acetate (pH 4.0) and boiling for 3 minutes. Cyclic GMP formed was subsequently measured by radioimmunoassay as described in example 6, infra. Under these conditions, guanylate cyclase activity was linear with time and tissue concentration. Adenylate cyclase activity in P1 fractions was measured according to the method described by Nathanson, et al., Science; 204:843 (1979); Mol. Pharmacol. 18:199 (1980), see Figure 1C . […] Neurosci. […]

guanylate cyclase [2] = biological target: T1, guanylate cyclase; assay: Guanylate cyclase in membrane fractions of cerebellum; assay type: biochemical, rabbit; design: tissues were homogenized (10 mg wet weight per milliliter); from tissue; host or cells: rabbit cerebral microvessels, choroid plexus, kidney, ciliary process, pia-arachnoid, cerebellum; 100,000 g P1 pellet
Procedure: as §1

## Ser-Leu-Arg-Arg-atriopeptin III (APIII) [rANP 1-28]
rabbits; 13 positive responses, SEM, 30 pmol bolus or 3 to 30 pmol/min for 10 minutes intraventricular
  mean decrease in rate of CSF production: 35.3% ± 6.9%
rabbits; bolus injection of 30 pmol into the lateral ventricle, during 100 minutes, Fig. 3
  drop of CSF secretion rate: 70%
rabbits; intraventricular bolus or infusion
  positive responses (decrease in CSF production): 13 of 14
Guanylate cyclase [1]
  maximum velocity of enzyme activity (Vmax): 215 % of control
Guanylate cyclase [2]
  stimulation of guanylate cyclase: moderate amount of stimulation
